Measurements published in patent US10449257B2, “Self-assembled composite ultrasmall peptide-polymer hydrogels” (Agency for Science, Technology and Research, priority 2011, dated 2019).
Values joined by “and” are separate entries in the source; they are usually repeats but may differ in a detail not shown here. Identical values can stand only once. Where a SMILES comes first, the peptide text is derived from it. Where no end group is shown, it is not given here.

How the values were obtained:
plasmid DNA = assay: Composite peptide-DNA hydrogels: DNA loading, encapsulation and release; format: physicochemical; details: for amount of DNA that can be incorporated into the composite hydrogel: plasmid DNA loading
Method: Various peptides (AcLD6, i.e. Ac-LIVAGD, SEQ ID NO: 65; AcLK6, i.e. Ac-LIVAGK, SEQ ID NO: 66; AcLS6, i.e. Ac-LIVAGS, SEQ ID NO: 67) were used to encapsulate plasmid DNA, forming composite peptide-DNA hydrogels (A). […] When the composite hydrogels were incubated with DNAse, digested DNA fragments were not observed, compared to the naked DNA control. […] Potential applications include synthetic cell culture substrates that mediate sustained DNA, mRNA, siRNA and short hairpin RNA delivery (C).
The peptide sequence (particularly the polar head group) and concentration plays a significant role in determining the maximum amount of DNA that can be incorporated into the composite hydrogel.
Even after 10 days, at least 80% of the DNA loaded remained in composite hydrogel. In particular, the Ac-LIVAGK (L)-DNA hydrogel retained 95% of the DNA added. The release of the nucleic acid can potentially be modulated by the peptide composition.

[1] = Peptide stability studies (TGA, 1H-NMR, HPLC-MS after UV or autoclave treatment); format: physicochemical; details: for decomposition by 1H-NMR: UV treated (2 h, 254 nm) or autoclaved (30 min, 120° C.); for degradation by HPLC-MS: following UV and autoclave treatment
[2] = Pilot study with 4 mice (10 days): blood cell counts after hydrogel implant; format: in vivo; details: 30 μL gel implant
Source text: There were no behavioral changes or weight loss following implantation for up to 2 months, and there was no significant difference in red or white blood cell counts or blood chemistry (liver and kidney function) between mice implanted with hydrogels and sham operated mice.

[3] = system: human derived adipose stem cells; assay: Subcutaneous implantation of hydrogels seeded with human derived adipose stem cells; format: in vivo; details: nude mice, after 45 days
Source text: FIG. 16. In vivo scaffold for adipose tissue regeneration Fat pad observed under the skeletal muscle layer in the region of the human adipose stem cell (hASC) implant 45 days post-implantation (A-C). The transplanted cells have the appearance of normal mature adipose tissue (D)—adipocytes with dark nuclei at edge, cells filled with fat.

[4] = SCID mice, listed as Ac-LIVAGK (L) gel

| erythrocytes [2, 4] | lymphocytes [2, 4] | monocytes [2, 4] | thrombocytes [2, 4] | basophils ([2]; normal mouse) | eosinophils ([2]; normal mouse) | erythrocytes ([2]; normal mouse) | lymphocytes ([2]; normal mouse) | monocytes ([2]; normal mouse) | neutrophils ([2]; normal mouse) | thrombocytes ([2]; normal mouse) | release of the DNA (plasmid DNA; over the course of several days) | Compound | amount of DNA that can be incorporated into the composite hydrogel (plasmid DNA) | decomposition by 1H-NMR [1] | degradation by HPLC-MS [1] | encapsulating and trapping of plasmid DNA (plasmid DNA; composite peptide-DNA hydrogel) | adipose tissue formation under the implant site [3] |
| --- | --- | --- | --- | --- | --- | --- | --- | --- | --- | --- | --- | --- | --- | --- | --- | --- | --- |
|  |  |  |  |  |  |  |  |  |  |  |  | Ac-LIVAGD [AcLD6] | lowest threshold for DNA loading | do not decompose | minimal |  |  |
| 9.29 M/uL and 11.33 M/uL | 0.88 K/uL and 0.9 K/uL | 0.22 K/uL and 0.12 K/uL | 0.607 M/uL and 0.978 M/uL | 0.02 K/uL | 0.11 K/uL | 10.65 M/uL | 3.76 K/uL | 0.42 K/uL | 1.6 K/uL | 0.833 M/uL | minimal release of the DNA | CC[C@H](C)[C@H](NC(=O)[C@H](CC(C)C)NC(C)=O)C(=O)N[C@H](C(=O)N[C@@H](C)C(=O)NCC(=O)N[C@@H](CCCCN)C(=O)O)C(C)C [AcLK6, Ac-LIVAGK] (Ac-LIVAGK-OH) | could integrate the highest concentration of DNA |  |  | extremely efficient in encapsulating and trapping the DNA | formation of fat pads |
|  |  |  |  |  |  |  |  |  |  |  |  | Ac-IVD (Ac-Ile-Val-Asp) [AcID3] |  | do not decompose | minimal |  |  |
